Experimental data: patent US9212396B2, “Materials and methods useful for affecting tumor cell growth, migration and invasion” (The Ohio State University, priority 2009, dated 2015)

Assays:
Format in all cases: cell-based, human
Calu-1 cells [1] = test: Caspase 3/7 assay of TRAIL-induced apoptosis in Calu-1 cells; settings: Calu-1 cells transfected 72 h, control 2′-O-me-scrambled miR
Method: (§1) Cells were grown in six well plate (1.7×10^6 per well) for 24 h and transfected 100 nmoli/L/well of 2′-O-me-oligoribonucleotides using lipofectamine 2000. RNA and proteins were extracted after 72 h from the transfection.
(§2) Cells were plated in 96-well plates in triplicate and incubated at 37° C. in a 5% CO2 incubator. Super-Killer TRAIL (Alexis Biochemicals) was used for 24-48 h at 400 ng ml-1. Cell viability was examined with 3-(4,5-dimethylthiazol-2-yl)-2,5-dipheniltetrazolium bromide (MTT)-Cell Titer 96 AQueous One Solution Cell Proliferation Assay (Promega), according to the manufacturer's protocol. Metabolically active cells were detected by adding 20 μl of MTT to each well. After 1 h of incubation, the plates were analyzed in a Multilabel Counter (Bio-Rad Laboratories). Apoptosis was assessed using Annexin V-FITC apoptosis detection kits followed by flowcytometric analysis and caspase 3/7 activity. […] Statistical analysis was done using two sample t test, assuming equal variance, and P value was calculated based on two-tailed test. For detection of caspase 3/7 activity, cells were cultured in 96-well plates and treated with TRAIL 400 ng/ml and analyzed using Caspase-Glo 3/7 Assay kit (Promega) according to the manufacturer's instructions. Continuous variables are expressed as mean values±standard deviation (s.d.).

Snu-387 cells [2] = test: Caspase 3/7 assay of TRAIL-induced apoptosis in Snu-387 cells; settings: Snu-387 cells transfected 72 h, control 2′-O-me-scrambled miR
Method: as §1, §2

PTEN and TIMP3 [3] = test: Western blot of PTEN and TIMP3 in Calu-1 cells; settings: Calu-1 cells after transfection
Method: (§3) Total proteins from NSCLC and HCC cells were extracted with radioimmuno-precipitation assay (RIPA) buffer ([…] NaCl, […] Tris-HCl, pH 7.5, 1% Triton, 0.1% SDS, 0.1% sodium deoxycholate and 1% Nonidet P40). Sample extract (50 μg) was resolved on 7.5-12% SDS-polyacrylamide gels (PAGE) using a mini-gel apparatus (Bio-Rad Laboratories) and transferred to Hybond-C extra nitrocellulose. Membranes were blocked for 1 h with 5% nonfat dry milk in Tris-buffered saline containing 0.05% Tween 20, incubated overnight with primary antibody, washed and incubated with secondary antibody, and visualized by chemiluminescence.
(§4) The following primary antibodies were used: anti-PTEN, anti-c-Jun, anti-p-c-Jun, anti-Fos, anti-p-JNK, anti-MMP3, anti-Mc1-1 (Santa Cruz), anti-TIMP3 (Millipore) anti-PI3K (BD Biosciences), anti-ERKs, anti-phospho ERKs, anti-AKT, anti-p-AKT, anti-GSK3b, anti-p-GSK3b (Ser9), anti-PAK1 anti-caspase-8,-3 and -9, anti-PARP, anti-cytochrome c (Cell signaling) and anti-MMP9, anti-FADD (Abcam), anti-1-actin antibody (Sigma). A secondary anti-rabbit or anti-mouse immunoglobulin G (IgG) antibody peroxidase conjugate (Chemicon) was used.
(§5) 2′-O-me-GFP miR (5′-[…] [SEQ ID No:17]) was used as control. Cells were grown in six well plate (1.7×10^6 per well) for 24 h and transfected 100 nmoli/L/well of 2′-O-me-oligoribonucleotides using lipofectamine 2000. […]

PTEN and TIMP3 [4] = test: Western blot of PTEN and TIMP3 in Snu-387 cells; settings: Snu-387 cells after transfection
Method: as §3, §4, §5

Calu-1 cells [5] = test: Migration and invasion assay in Calu-1 cells; settings: Calu-1 cells after transfection
Method: (§6) Transwell insert chambers with […] porous membrane (Greiner bio-one) were used for the assay. Cells were washed three times with PBS and added to the top chamber in serum-free media. The bottom chamber was filled with media containing 10% FBS. Cells were incubated for 24 h at 37° C. in a 5% CO2 humidified incubator. To quantify migrating cells, cells on the top chamber were removed by using a cotton-tipped swab, and the migrated cells were fixed in PBS, 25% glutaraldehyde and stained with Crystal Violet stain, visualized under a phase-contrast microscope, and photographed. Cristal violet-stained cells were moreover solubilized in acetic acid and methanol (1:1) and absorbance was measured at 595 nm. The results are means of three independent experiments±S.D.
(§7) H460 and SK-Hep-1 cells were placed into the top chamber of a BD Falcon HTS FluoroBlok insert with a membrane containing […] pores (BD Biosciences) in […] of serum-free Dulbecco's modified Eagle medium in triplicate. […] The fluorescence of migrated cells was quantified using a fluorometer at excitation wavelengths of 485 nm and emission wavelengths of 530 nm and expressed as arbitrary fluorescence units. Data are expressed as mean±standard error of 4 separate determinations.

Snu-387 cells [6] = test: Migration and invasion assay in Snu-387 cells; settings: Snu-387 cells after transfection
Method: as §6, §7

AKT pathway = test: Western blots of AKT pathway in Snu-387 cells; settings: Snu-387 cells after knockdown
Method: as §3, §4, §5

miR-221 and miR-222 = test: qRT-PCR of miR-221 and miR-222 in Huh7 cells after anisomycin; set-up: dose or concentration left out as unconfirmed
Method: Real-time PCR was performed using a standard TaqMan PCR Kit protocol on an Applied Biosystems 7900HT Sequence Detection System (Applied Biosystems). The 10 μl PCR reaction included 0.67 μl RT product, 1 μl TaqMan Universal PCR Master Mix (Applied Biosystems), […]. The reactions were incubated in a 96-well plate at 95° C. for […], followed by 40 cycles of 95° C. for 15 s and 60° C. for 1 min. All reactions were run in triplicate. The threshold cycle (CT) is defined as the fractional cycle number at which the fluorescence passes the fixed threshold. The comparative CT method for relative quantization of gene expression (Applied Biosystems) was used to determine miRNA expression levels. The y axis represents the 2(-CT), or the relative expression of the different miRs. miRs expression was calculated relative to U44 and U48 rRNA and multiplied by 104. Experiments were carried out in triplicate for each data point, and data analysis was performed by using software (Bio-Rad).

c-Jun, PTEN and TIMP3 = test: Western blot in Huh7 cells after anisomycin
Method: as §3, §4

PTEN and TIMP3 3′ UTRs = test: 3′UTR luciferase reporter assay in MEG01 cells; settings: wild type 3′ UTRs
Excerpt: The 3′ UTR of the human PTEN and TIMP3 genes were PCR amplified using the following primers: PTEN Fw 5′-TCTAGAGACTCTGATCCAGAGAATGAACC-3′ [SEQ ID No:1] and PTEN Rw 5′-TCTAGAGTTGCCACAAGTGCAAAGGGGTAGGATGTG-3′ [SEQ ID No:2]; TIMP3 Fw 5′-TCTAGACTGGGCAAAGAAGGGTCTTTCGCAAAGC-3′ [SEQ ID No:3] and TIMP3 Rw 5′ TCTAGATTCCAATAGGGAGGAGGCTGGAGGAGTCTC-3′ [SEQ ID No:4] and cloned downstream of the […] luciferase stop codon in pGL3 control vector (Promega), giving rise to the p3′UTR-PTEN and p3′UTR-TIMP3 plasmids.
These constructs were used to generate, by inverse PCR, the p3′-UTRmut-PTEN plasmid-primers: Fw: 5′-GTTGAAAAAAGGTTGGGGGCGGGTGTCATGTATATAC-3 [SEQ ID No:5]; Rw: 5′-GTATATACATGACACCCGCCCCCAACCTTTTTTCAAC-3′[SEQ ID No:6]; p3′-UTRmut-TIMP3 plasmid-primers: Fw: 5′-GTATAATTTAAAATCATTGGGCGGCGGGAGACACTTCTGTATTTC-3′ [SEQ ID No:7]; Rw: 5′-GAAATACAGAAGTGTCTCCCGCCGCCCAATGATTTTAAATTATAC-3′ [SEQ ID No:8].
MeG01 cells were cotransfected with 1 μg of p3′UTR-PTEN or p3′UTR-TIMP3 and with p3′UTRmut-PTEN or p3′ UTR TIMP3 plasmids and 1 μg of a Renilla luciferase expression construct pRL-TK (Promega) by using Lipofectamine 2000 (Invitrogen). Cells were harvested 24 h post-transfection and assayed with Dual Luciferase Assay (Promega) according to the manufacturer's instructions. […]

PTEN and TIMP3 [7] = test: Western blot of PTEN and TIMP3 in H460 cells; settings: 72 h, compared to scrambled pre-miR
Method: as §3, §4

PTEN and TIMP3 mRNA = test: qRT-PCR of PTEN and TIMP3 mRNA in H460 cells
PTEN and TIMP3 [8] = test: Western blot of PTEN and TIMP3 in Sk-Hep1 cells; settings: Sk-Hep1 cells upon over-expression
Method: as §3, §4

[9] = system: AKT/ERKs pathways and Metallopeptidases; test: Western blots of AKT/ERKs pathways and metallopeptidases in H460 cells; settings: H460 cells after forced expression
Method: as §3, §4

H460 cells [10] = test: Flow cytometric cell cycle analysis of H460 cells; settings: H460 transfected cells, 72 h
H460 cells [11] = test: Migration and invasion assay in H460 cells; settings: H460 cells after transfection
Method: as §6, §7

Sk-Hep1 cells = test: Migration and invasion assay in Sk-Hep1 cells; settings: Sk-Hep1 cells after transfection
Method: as §6, §7

## 5′-gaaacccagcagacaauguagcu (antisense GAAACCCAGCAGACAAUGUAGCU; all 2'-O-methyl, backbone not given here) [2′-O-me-anti-miR-221]
Calu-1 cells [1]
  sensitivity to TRAIL-induced apoptosis (caspase 3/7 assay): considerably sensitized these cells to TRAIL-induced apoptosis
Snu-387 cells [2]
  sensitivity to TRAIL-induced apoptosis (caspase 3/7 assay): considerably sensitized these cells to TRAIL-induced apoptosis
PTEN and TIMP3 [3]
  PTEN and TIMP3 protein levels (western blot): increased the protein levels of PTEN and TIMP3
PTEN and TIMP3 [4]
  PTEN and TIMP3 protein level (western blot): increased the protein level of PTEN and TIMP3
Calu-1 cells [5]
  cell migration and invasion: a decrease in cell migration and invasion
Snu-387 cells [6]
  cell migration and invasion: a decrease in cell migration and invasion
AKT pathway
  AKT pathway (western blots): inhibition of the AKT pathway

## 5′-gagacccagtagccagatgtagct (antisense GAGACCCAGTAGCCAGATGTAGCT; all 2'-O-methyl, backbone and T or U not given here) [2′-O-me-anti-miR-222]
Calu-1 cells [1]
  sensitivity to TRAIL-induced apoptosis (caspase 3/7 assay): considerably sensitized these cells to TRAIL-induced apoptosis
Snu-387 cells [2]
  sensitivity to TRAIL-induced apoptosis (caspase 3/7 assay): considerably sensitized these cells to TRAIL-induced apoptosis
PTEN and TIMP3 [3]
  PTEN and TIMP3 protein levels (western blot): increased the protein levels of PTEN and TIMP3
PTEN and TIMP3 [4]
  PTEN and TIMP3 protein level (western blot): increased the protein level of PTEN and TIMP3
Calu-1 cells [5]
  cell migration and invasion: a decrease in cell migration and invasion
Snu-387 cells [6]
  cell migration and invasion: a decrease in cell migration and invasion
AKT pathway
  AKT pathway (western blots): inhibition of the AKT pathway

## COc1ccc(C[C@H]2NC[C@H](O)[C@H]2OC(C)=O)cc1 [anisomycin]
miR-221 and miR-222
  miR-221 expression increase (qRT-PCR): 80%
  miR-222 expression increase (qRT-PCR): 40%
c-Jun, PTEN and TIMP3; Huh7 cells after anisomycin
  PTEN and TIMP3 expression levels: decreased drastically
c-Jun, PTEN and TIMP3; Huh7 cells, total lysate, western blot
  c-Jun activation: induced c-Jun activation

## miR-222: microRNA transfected (100 nM) for enforced expression (GAGACCCAGTAGCCAGATGTAGCT; listed as DNA, chemistry not given here)
PTEN and TIMP3 3′ UTRs
  relative luciferase activity of PTEN and TIMP3 3′ UTR reporter constructs: significantly affected luciferase expression
PTEN and TIMP3 [7]
  endogenous levels of PTEN and TIMP3 (western blot): significantly reduced the endogenous levels of PTEN and TIMP3
PTEN and TIMP3 mRNA; H460 cells after enforced expression
  down-regulation of TIMP3 mRNA (qRT-PCR): not observed
PTEN and TIMP3 mRNA; H460 cells after forced expression
  PTEN mRNA levels (qRT-PCR): strongly reduced
PTEN and TIMP3 [8]
  PTEN and TIMP3 proteins (western blot): reduced
[9]
  activation of AKT/ERKs pathways and metallopeptidases (western blots): induces the activation of the AKT/ERKs pathways and Metallopeptidases
H460 cells [10]
  cell cycle distribution: a decrease of G1 and a corresponding increase of the S and G2-M phases
H460 cells [11]
  migratory and invasive capabilities: significant increase
Sk-Hep1 cells
  migratory and invasive capabilities: significant increase
